Assay results published in paper PMC8541314, “Production and Purification of Two Bioactive Antimicrobial Peptides Using a Two-Step Approach Involving an Elastin-Like Fusion Tag” (Pharmaceuticals, 2021).

Legend:
mammalian cells = conditions: cited from earlier work
Excerpt: In this work, we report the use of A200 as a thermoresponsive protein tag for the production and purification of the following two AMPs, using Escherichia coli as a cell factory: ABP-CM4 (CM4), a 35 amino acid antimicrobial peptide, isolated from the haemolymph of the silkworm Bombyx mori; and Synoeca-MP (Synoeca), a 14 amino acid antimicrobial peptide, isolated from the venom of the Synoeca surinama wasp. CM4 is a member of the cecropin family of peptides, with antibacterial, antifungal, and antitumor activities, while showing no toxicity towards mammalian cells [[26],[28],[29], ...

S. epidermidis isolate = test: Broth microdilution MIC / growth inhibition; format: cell-based, Staphylococcus epidermidis; conditions: 18 h at 37 °C; for MIC: S. epidermidis clinical isolate, broth microdilution in MHB, OD600nm, at least three independent replicates, range 0.39–100 mg/L; for growth inhibition (complete inhibition): S. epidermidis, within tested range 0.39–100 mg/L
Procedure: (§1) The antibacterial activity of free CM4 and Synoeca was evaluated by determination of the minimum inhibitory concentration (MIC) against Gram-negative (E. coli HB101, P. aeruginosa ATCC10145, B. cenocepacia IST439, B. cenocepacia IST4113, and K. pneumoniae) and Gram-positive (S. aureus ATCC6538 and S. epidermidis) bacteria. The AMPs were incubated with bacterial suspensions and assessed for bacterial growth, with the MIC defined as the lowest concentration of AMPs that inhibited the visible growth of bacteria (Figure 5).
(§2) E. coli XL1-Blue and BL21(DE3) strains were used for the cloning and production steps, respectively. E. coli HB101, S. aureus ATCC6538, P. aeruginosa ATCC10145, B. cenocepacia IST439, B. cenocepacia IST4113, and clinical isolates of K. pneumoniae and S. epidermidis were used in the broth microdilution MIC assays. The clonal variants of B. cenocepacia were isolated, with a 3-year difference, from the same cystic fibrosis (CF) patient.
(§3) The antibacterial activity of the isolated AMPs was assessed via broth microdilution method to determine the MIC against clinically relevant Gram-negative and Gram-positive bacteria—E. coli HB101, P. aeruginosa ATCC10145, B. cenocepacia IST439, B. cenocepacia IST4113, K. pneumoniae isolate, S. aureus ATCC6538 and S. epidermidis isolate—following the European Committee on Antimicrobial Susceptibility Testing (EUCAST) and the Clinical Laboratory Standards Institute (CLSI) guidelines. A detailed description of the method is provided by Wiegand et al.. Briefly, stock solutions of 2 mg/mL of AMP in sterile mQ water were used for the preparation of two-fold serial dilutions in MHB, to obtain final testing concentrations within the range of 0.39–100 mg/L (200 mg/L for B. cenocepacia strains). For the MIC assays, 50 μL of protein solution and 50 μL of bacterial suspensions in MHB (1 × 10^6 CFUs/mL) were mixed in 96-well plates (Nunc™ Edge 2.0 96-well plates, Thermo Scientific™, Waltham, Massachusetts, EUA) and incubated for 18 h at 37 °C. Growth inhibition was assessed by measuring optical density at 600 nm (OD600nm). The MIC was determined as the lowest concentration of antimicrobial peptide that inhibited the visible growth of the testing bacteria. At least three independent replicates were performed for each peptide and bacterial strain. Data were analysed by GraphPad Prism 6 Software (GraphPad Software, Inc., La Jolla, CA, USA).

P. aeruginosa ATCC10145 = test: Broth microdilution MIC / growth inhibition; format: cell-based, Pseudomonas aeruginosa; conditions: 18 h at 37 °C, OD600nm; for MIC: P. aeruginosa ATCC10145, broth microdilution in MHB, at least three independent replicates, range 0.39–100 mg/L; for mean value of growth inhibition: P. aeruginosa
Procedure: as §1, §2, §3

E. coli HB101 = test: Broth microdilution MIC / growth inhibition; format: cell-based, Escherichia coli; conditions: 18 h at 37 °C; for MIC: E. coli HB101, broth microdilution in MHB, OD600nm, at least three independent replicates, range 0.39–100 mg/L; for growth inhibition (complete inhibition): E. coli, within tested range 0.39–100 mg/L
Procedure: as §1, §2, §3

K. pneumoniae isolate = test: Broth microdilution MIC / growth inhibition; format: cell-based, Klebsiella pneumoniae; conditions: 18 h at 37 °C, OD600nm; for MIC: K. pneumoniae clinical isolate, broth microdilution in MHB, at least three independent replicates, range 0.39–100 mg/L
Procedure: as §1, §2
as §3, with “For the MIC assays, 50 μL of protein solution and 50 μL of bacterial suspensions in MHB (1 × 10^6 CFUs/mL) were mixed in 96-well plates (Nunc™ Edge 2.0 96-well plates, Thermo Scientific™, Waltham, Massachusetts, EUA) and incubated for 18 h at 37 °C.” left out, “At least three independent replicates were performed for each peptide and bacterial strain.” left out

B. cenocepacia IST439 = test: Broth microdilution MIC / growth inhibition; format: cell-based, Burkholderia cenocepacia; conditions: 18 h at 37 °C, OD600nm; for MIC: broth microdilution in MHB, at least three independent replicates, range up to 200 mg/L
Procedure: as §1, §2, §3

B. cenocepacia IST4113 = test: Broth microdilution MIC / growth inhibition; format: cell-based, Burkholderia cenocepacia; conditions: 18 h at 37 °C, OD600nm; for MIC: broth microdilution in MHB, at least three independent replicates, range up to 200 mg/L
Procedure: as §1, §2, §3

S. aureus ATCC6538 = test: Broth microdilution MIC / growth inhibition; format: cell-based, Staphylococcus aureus; conditions: 18 h at 37 °C; for MIC: S. aureus ATCC6538, broth microdilution in MHB, OD600nm, at least three independent replicates, range 0.39–100 mg/L; for growth inhibition (complete inhibition): S. aureus, within tested range 0.39–100 mg/L
Procedure: as §1, §2, §3

ABP-CM4
toxicity towards mammalian cells (mammalian cells; mammalian cells): no toxicity
MIC (S. epidermidis isolate): 12.50 µg/mL
growth inhibition (complete inhibition) (S. epidermidis isolate): 100%
MIC (P. aeruginosa ATCC10145): >100.00 µg/mL
mean value of growth inhibition (P. aeruginosa ATCC10145; peptide 100.00 mg/L): 25%
MIC (E. coli HB101): 50.00 µg/mL
growth inhibition (complete inhibition) (E. coli HB101): 100%
MIC (K. pneumoniae isolate): 50.00 µg/mL
MIC (B. cenocepacia IST439): ~200.00 µg/mL
growth inhibition (B. cenocepacia IST439; peptide 100.00 mg/L): around 75%
MIC (B. cenocepacia IST4113): 200.00 µg/mL
growth inhibition (B. cenocepacia IST4113; peptide 100.00 mg/L): around 75%
mean value of growth inhibition (B. cenocepacia IST4113; peptide 200.00 mg/L): 100%
MIC (S. aureus ATCC6538): 3.13 µg/mL
growth inhibition (complete inhibition) (S. aureus ATCC6538): 100%

Synoeca-MP
cytotoxicity against mammalian cell lines (mammalian cells; mammalian cell lines): no significant cytotoxicity
MIC (S. epidermidis isolate): 6.25 µg/mL
growth inhibition (complete inhibition) (S. epidermidis isolate): 100%
MIC (P. aeruginosa ATCC10145): >100.00 µg/mL
mean value of growth inhibition (P. aeruginosa ATCC10145; within tested range 0.39–100 mg/L): lower than 5%
MIC (E. coli HB101): 25.00 µg/mL
growth inhibition (complete inhibition) (E. coli HB101): 100%
MIC (K. pneumoniae isolate): >100.00 µg/mL
mean value of growth inhibition (K. pneumoniae isolate; K. pneumoniae, within tested range 0.39–100 mg/L): lower than 5%
MIC (B. cenocepacia IST439): 12.50 µg/mL
MIC (B. cenocepacia IST4113): 12.50 µg/mL
MIC (S. aureus ATCC6538): 1.56 µg/mL
growth inhibition (complete inhibition) (S. aureus ATCC6538): 100%
